This note sets out measurements from the NIST ThermoML archive (doi:10.1021/je100704j).

The conditions of data set [1]: 298.15 K; 101.33 kPa; Liquid; Vibrating tube method.
Data set [2] can be described thus: refractive index (Na D-line) (dimensionless). The conditions noted are these: 293.15 K; 101.33 kPa; Liquid; Standard Abbe refractometry.

± gives the expanded uncertainty stated by the source.

As a reminder, the mass density is mass per unit of volume. In general, refractive index refers to a measure of how strongly the sample bends light. `C1CCCCC1` [cyclohexane]: in data set [1], the mass density was 773.4 ± 0.2 kg/m3. Moreover, the refractive index in data set [2] is reported as 1.4259 ± 0.0008.
On the same counts, the results for `CCOC(C)=O` [ethyl acetate] are 894.6 ± 0.2 kg/m3 and 1.3701 ± 0.0008.
On the same counts, the results for `CC(=O)CC(C)=O` [2,4-pentanedione] are 971.7 ± 0.2 kg/m3 and 1.4489 ± 0.0008.
For `O` [water], in that order: 996.8 ± 0.2 kg/m3 and 1.3327 ± 0.0008.
